Laboratory results published in patent US10765754B2, “Compositions and methods related to inhibition of respiratory syncytial virus entry” (priority 2015, dated 2020).
Starred links: 1 amine or outer side, 2 acyl side, 3 side chain; linkers in the order of their positions; H or OH if unused. Positions of bridges follow the written chain, without caps; N, C: chain ends. Non-standard residues stand in square brackets, D forms with d. Residues, ends and D or L forms follow the SMILES beside them. Chains are numbered I, II in the order given. X1 = NCCOCCOCCOCCOCCOCCOCCOCCOCCOCCOCCOCCOCCOCCOCCOCCOCCOCCOCCOCCOCCOCCOCCOCCOCCOCCOCCOCCOCCC(=O)NC(CCC(=O)[*:1])(CCC(=O)[*:2])CCC(=O)[*:3]; PEG6 = NCCOCCOCCOCCOCCOCCOCCC(=O)O

Columns and labels:
RSV-A/IZN45 = target: T1, RSV-A/IZN45 (Human respiratory syncytial virus A, UniProt P03420); assay: SPR binding to RSV-A IZN45 N-trimer mimic; conditions: Kd, RSV-A/IZN45
T1 construct: N-trimer Mimics Synthesized; made in house; host or cells: chemical peptide synthesis
Source text: (§1) IZN45 N-trimer mimic comprises the IZ domain, a highly soluble, designed coiled-coil that helps solubilize the N-trimer, along with the C-terminal (bottom) 45 residues of the RSV N-trimer. IZN45 encompasses the full ordered portion of the N-trimer except for three N-terminal residues (removed to maintain a continuous heptad repeat with the IZ domain). The interactions between 35-residue RSV C-peptides, T108 and T118 (Lambert et al., 1996, Proc. Natl. Acad. Sci. USA 93:2186-2191), and IZN45 was examined by surface plasmon resonance (SPR). SPR is a gold standard assay to measure the kinetics and affinity of biological interactions. […] The Biotinylated L-form of RSV target IZN45 was captured onto one lane of a NeutrAvidin coated SPR chip. A mutant version of IZN45 containing four mutated residues along the N-trimer groove designed to disrupt binding (IZN45 Full Mut, negative control) was captured onto a separate lane of the NeutrAvidin chip. T118, corresponding to the C-terminal portion of the RSV F ectodomain, which is known to interact with the RSV N-trimer groove, was flowed over the various surfaces. […] The surfaces were regenerated with a detergent (0.1% SDS) after each injection of analyte. Various concentrations of T118 were measured in duplicate or triplicate injections. D-peptide interactions with IZN45 and IZN45-Full Mut surfaces were also measured using this method.
(§2) Peptides from the ‘winning’ phage clones from each library were synthesized as D-peptides. If solubility of the peptides was limited, N- or C-terminal charged residue(s) (e.g., lysine) were attached as necessary as previously described for HIV peptides in Eckert et al., 1999, Cell 99:103-15, incorporated by reference in its entirety. Binding affinity and kinetics of the D-peptide inhibitors to the IZN45 and IZN45 mutants was characterized by SPR (Biacore 3000), using methods as described in Welch et al., 2007, Proc. Natl. Acad. Sci. USA 104:16828-33, incorporated by reference in its entirety.

RSV-B/IZN45 = target: T2, RSV-B/IZN45 (Human respiratory syncytial virus B, UniProt O36634); assay: biochemical; type: binding; conditions: RSV-B/IZN45
T2 construct: N-trimer Mimics Synthesized; made in house; host or cells: chemical peptide synthesis
How it was run: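 Biotinylated L-form IZN45, with the groove-disrupted mutant as control, was captured on NeutrAvidin SPR lanes. Analytes were C-peptide T118 at various concentrations or D-peptides, run as duplicate or triplicate injections. Surfaces were regenerated with 0.1% SDS after each injection, and affinity and kinetics were derived.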

IZN45 = assay: SPR binding to IZN45 N-trimer mimic, subtype not stated; parameters: species or system RSV
Source text: as §1, §2

RSV = conditions: high-risk infants; cited from earlier work
IZN45 Full Mut = IZN45 Full Mut (Human respiratory syncytial virus B, UniProt O36634, A170W/A177W/D194W/G184W/N197K); conditions: IZN45 Full Mut / IZN45_Mut, SPR
Source text: as §1, with “method. […]” for “method.”

HIV = conditions: standard viral passaging, escalating inhibitor; cited from earlier work
[1] = synthesized peptide, KD determined by SPR
[2] = running text/figure legend, IZN45 subtype not stated
[3] = subsequent trimer/compound made from peptide, SPR

CC(=O)N[C@H](CCCCN)C(=O)NCCOCCOCCOCCOCCOCCOCCC(=O)NCC(=O)N[C@H](C)C(=O)N[C@@H]1CSSC[C@H](C(=O)N[C@H](C)C(=O)N[C@H](C)C(N)=O)NC(=O)[C@@H](Cc2c[nH]c3ccccc23)NC(=O)[C@@H](CC(=O)O)NC(=O)[C@@H](CC(C)C)NC(=O)[C@@H](CC(C)C)NC(=O)[C@@H](Cc2c[nH]c3ccccc23)NC(=O)[C@@H](Cc2c[nH]cn2)NC(=O)[C@H]2CCCN2C(=O)[C@@H](CCC(=O)O)NC(=O)[C@@H](CC(N)=O)NC(=O)[C@@H](CCCNC(=N)N)NC1=O [Ac-K(PEG6)-RSVP20] (Ac-[dK][PEG6]G[dA][dC][dR][dN][dE][dP][dH][dW][dL][dL][dD][dW][dC][dA][dA]-NH2; disulfide 5-16)
Kd (RSV-A/IZN45; [1]): 3.7 µM
Kd (RSV-B/IZN45; [1]): 4.1 µM
Kd (IZN45; b401, printed without unit): 3.7 µM
Kd (IZN45; [2]): 3.7 µM

I: Ac-[dK][PEG6]G[dA][dC][dR][dN][dE][dP][dH][dW][dL][dL][dD][dW][dC][dA][dA]-NH2 / II: Ac-[dK][PEG6]G[dA][dC][dR][dN][dE][dP][dH][dW][dL][dL][dD][dW][dC][dA][dA]-NH2 / III: Ac-[dK][PEG6]G[dA][dC][dR][dN][dE][dP][dH][dW][dL][dL][dD][dW][dC][dA][dA]-NH2 (linker I:1-II:1-III:1 via X1; disulfide I:5-I:16, II:5-II:16, III:5-III:16; C-terminus assumed) [Ac-K(PEG6)-RSVP20-trimer]
Kd (RSV-A/IZN45; [3]): 0.0003 µM
Kd (RSV-B/IZN45; [3]): 0.0017 µM
Kd (IZN45; [2]): 0.0003 µM
improvement in binding affinity of trimer over the corresponding monomer (IZN45; trimerization): 10,000 fold

Synagis: monoclonal antibody (mAb) given prophylactically throughout RSV season
reduction of hospitalizations (RSV): 55%

T118: 35-residue RSV C-peptide corresponding to the C-terminal portion of the RSV F ectodomain (FDASISQVNEKINQSLAFIRKSDELLHNVNAGKST)
binding to mutant control target (IZN45 Full Mut): did not bind

enfuvirtide
time in which resistance develops (HIV): 2-3 weeks
